Measured values reported in ChEMBL document CHEMBL1156579, “Orally active factor Xa inhibitors: investigation of a novel series of 3-amidinophenylsulfonamide derivatives using an amidoxime prodrug strategy” (Bioorg Med Chem Lett, 2008).
Values belong to the compound of their own block, whether it stands above or below them.

Columns and labels:
[1] = target: Coagulation factor X (Homo sapiens, UniProt P00742); assay: Inhibition of human factor 10a by Dixon-plot method
[2] = Oral bioavailability in rat; assay type: ADME, organism-based; conditions: in vivo
[3] = system: Mus musculus; assay: Antithrombotic activity against thromboplastin-induced lethal thromboembolism in po dosed thrombosis mouse model assessed as survival; assay type: functional
[4] = target: Trypsin (Homo sapiens, UniProt P07477+P07478+P35030); assay: Inhibition of human trypsin by Dixon-plot method; assay type: protein assay
[5] = Oral bioavailability in mouse; assay type: ADME, organism-based; conditions: in vivo
[6] = Oral bioavailability in rabbit; assay type: ADME, organism-based, Oryctolagus cuniculus; conditions: in vivo
[7] = Oral bioavailability in dog; assay type: ADME, organism-based, Canis lupus familiaris; conditions: in vivo
[8] = Oral bioavailability in cynomolgus monkey; assay type: ADME, organism-based, Macaca fascicularis; conditions: in vivo
[9] = Total clearance in iv dosed rat; assay type: ADME, organism-based; conditions: in vivo
[10] = system: Plasma; assay: Anticoagulant activity in human plasma assessed as concentration required to double prothrombin time; assay type: functional
[11] = target: Prothrombin (Homo sapiens, UniProt P00734); assay: Inhibition of human thrombin by Dixon-plot method
[12] = system: Rattus norvegicus; assay: Stability in iv dosed rat assessed as prodrug conversion; assay type: ADME, organism-based; conditions: in vivo
[13] = Systemic clearance in rat; assay type: ADME, organism-based; conditions: in vivo
[14] = Oral bioavailability in mouse at 30 mg/kg; assay type: ADME, organism-based; conditions: in vivo

Chain of Coagulation factor X (P00742 41-179 limits assumed): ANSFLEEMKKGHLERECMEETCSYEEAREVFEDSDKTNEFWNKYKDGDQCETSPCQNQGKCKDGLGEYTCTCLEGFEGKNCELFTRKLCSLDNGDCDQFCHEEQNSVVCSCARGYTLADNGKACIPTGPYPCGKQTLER
Chain of Coagulation factor X (P00742 235-488 limits assumed): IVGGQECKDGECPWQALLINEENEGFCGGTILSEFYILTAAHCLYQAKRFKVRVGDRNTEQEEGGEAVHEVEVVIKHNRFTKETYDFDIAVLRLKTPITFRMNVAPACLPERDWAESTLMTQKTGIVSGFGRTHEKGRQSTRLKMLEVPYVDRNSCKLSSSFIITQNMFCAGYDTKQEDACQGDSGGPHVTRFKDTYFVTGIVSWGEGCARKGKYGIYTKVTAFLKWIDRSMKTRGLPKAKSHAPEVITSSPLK

SMILES: CCOC(=O)COc1cc(C(C)C)ccc1CCNS(=O)(=O)c1cc(C(=N)NO)ccc1O
- Ki [1]: 3.5 µM
- bioavailability [2]: 13%
- ED50 [3]: 15.8 mg/kg

- Ki [4]: 0.77 µM
- Ki [1]: 0.059 µM
SMILES: CC(C)c1ccc(CCN(C)S(=O)(=O)c2cc(C(=N)N)ccc2O)cc1

- bioavailability [5]: 15%
- bioavailability [6]: 23%
- bioavailability [7]: 4.9%
- bioavailability [8]: 11%
SMILES: CCCCOC(=O)COc1cc(-c2ccccc2S(C)(=O)=O)ccc1CCNS(=O)(=O)c1cc(C(=N)NO)ccc1O.Cl

- clearance [9]: 20 mL/min
- Ki [1]: 0.0097 µM
SMILES: CC(C)c1ccc(CCNS(=O)(=O)c2cc(C(=N)N)ccc2O)c(NC(=O)C(=O)O)c1

- clearance [9]: 27 mL/min
- Ki [4]: 0.8 µM
- Ki [11]: > 10 µM
- Ki [1]: 0.029 µM
- bioavailability [2]: 3.7%
SMILES: CC(C)c1ccc(CCNS(=O)(=O)c2cc(C(=N)N)ccc2O)cc1
- Activity [10]: 2.6 µM

- IC50 [4]: 1.7 µM
- Ki [11]: > 10 µM
- Ki [1]: 0.1 µM
SMILES: CC(C)Oc1ccc(CCNS(=O)(=O)c2cc(C(=N)N)ccc2O)cc1

- Ki [1]: 14 µM
SMILES: COc1ccc(C(=N)N)cc1S(=O)(=O)NCCc1ccc(C(C)C)cc1

- Activity [12]: 16%
- clearance [9]: 13 mL/min
- Ki [1]: 7 µM
SMILES: CC(C)c1ccc(CCN(CC(=O)O)S(=O)(=O)c2cc(/C(N)=N/O)ccc2O)cc1

- clearance [9]: 7.5 mL/min
SMILES: CS(=O)(=O)c1ccccc1-c1ccc(CCNS(=O)(=O)c2cc(C(=N)N)ccc2O)c(OCC(=O)O)c1

- Ki [4]: 4 µM
- Ki [1]: 3 µM
SMILES: CC(C)c1ccc(CCNS(=O)(=O)c2cc(C(=N)N)ccc2Cl)cc1

- clearance [9]: 8.1 mL/min
- Ki [1]: 0.014 µM
- clearance [13]: 8.1 mL/min
SMILES: CC(C)c1ccc(CCN(CC(=O)O)S(=O)(=O)c2cc(C(=N)N)ccc2O)cc1
- Activity [10]: 1.4 µM

- clearance [9]: 25 mL/min
- Ki [1]: 0.0057 µM
SMILES: CS(=O)(=O)c1ccccc1-c1ccc(CCNS(=O)(=O)c2cc(C(=N)N)ccc2O)c(NCC(=O)O)c1

- clearance [9]: 1.7 mL/min
- Ki [1]: 0.051 µM
- bioavailability [14]: 38%
SMILES: CC(C)c1ccc(CCNS(=O)(=O)c2cc(C(=N)N)ccc2O)c(OCC(=O)O)c1
- Activity [10]: 7.2 µM

- IC50 [4]: 9.7 µM
- Ki [11]: > 10 µM
- Ki [1]: 2.1 µM
SMILES: CC(C)c1ccc(CCNS(=O)(=O)c2cccc(C(=N)N)c2)cc1

- Ki [1]: 0.027 µM
SMILES: CC(C)(C)c1ccc(CCNS(=O)(=O)c2cc(C(=N)N)ccc2O)cc1

- Ki [1]: 3.7 µM
- bioavailability [2]: < 1%
SMILES: CCOC(=O)CN(CCc1ccc(C(C)C)cc1)S(=O)(=O)c1cc(/C(N)=N/O)ccc1O

- clearance [9]: 23 mL/min
- Ki [4]: 6.17 µM
- Ki [11]: 26 µM
- bioavailability [2]: 0.9%
SMILES: CC(=N)N1CCC(c2ccc(NC(=O)CN(Cc3cccc(OCC(=O)O)c3)c3cccc(C(=N)N)c3)cc2)CC1
- Activity [10]: 0.84 µM

- Activity [12]: 57%
- clearance [9]: 7.5 mL/min
- Ki [1]: > 10 µM
- bioavailability [2]: 9.2%
SMILES: CC(C)c1ccc(CCNS(=O)(=O)c2cc(/C(N)=N/O)ccc2O)c(OCC(=O)O)c1

- Ki [4]: 1.17 µM
- Ki [11]: 57.8 µM
SMILES: CS(=O)(=O)c1ccccc1-c1ccc(CCNS(=O)(=O)c2cc(C(=N)N)ccc2O)c(OCC(=O)O)c1.Cl
- Activity [10]: 1.01 µM

- Activity [12]: 1%
- clearance [9]: 27 mL/min
- Ki [1]: 7.3 µM
- bioavailability [2]: 6.6%
SMILES: CC(C)c1ccc(CCNS(=O)(=O)c2cc(/C(N)=N/O)ccc2O)cc1

- clearance [9]: 3.2 mL/min
- Ki [1]: 0.062 µM
SMILES: CC(C)c1ccc(CCNS(=O)(=O)c2cc(C(=N)N)ccc2O)c(NCC(=O)O)c1
